Measurements as given in patent US12303845B2, “Method for crystallization of active pharmaceutical ingredients” (Nanoform Finland Oyj, priority 2023, dated 2025).

How the values were obtained:
Assay type in all cases: physicochemical
[1] = Crystallization of amorphous nanosized API in aqueous polymer solution, polymorph/crystallinity by XRD; parameters: key to Polymorph: bulk = same as the API before conversion to amorphous nanoparticles
Protocol: XRPD measurements were carried out using the Malvern PANalytical Empyrean X-ray diffractometer equipped with a Cu Kα (1.54 Å) source, MultiCore optics and a solid-state PIXcel3D detector. By using Kapton tape the samples were attached onto aluminum or polycrystalline silicon sample holders. Dried slurries were measured without further sample preparation under Kapton tape and suspensions were filtered, dried, and filters were attached with double sided tape. The samples were measured in the reflection geometry in a spinning measurement stage. The measurement range was 5-40 (°2θ). The step size and time per step values were varied depending on the counts per second obtained.
Determination of crystallization of API nanoparticles was evaluated via kinetic study of suspension. Accordingly, XRD measurement was done for suspension in different time points.
Amorphous API nanoparticles (budesonide, ezetimibe, ceritinib, and apalutamide) were added as dry powders to aqueous polymer solutions. The mixtures were either • (i) mixed with a magnetic stirrer and ultrasonicated until API was completely surrounded by water (wetted). The stirring was continued for 16-24 h at ambient temperature or • (ii) blended with a metal spatula and allowed to stay at room temperature for 18-24 h.
The suspensions formed were analyzed after 18-24 h. SEM and XRD samples were prepared as described above.

[2] = SEM of crystallized suspensions and dried products (crystal size grade, particle size); parameters: key: 5 = nanocrystals; 1 = large crystals
Protocol: SEM images were captured using the Zeiss Sigma 300 VP SEM instruments. Samples were dispersed into water and filtered with 0.1 μm filter. Filters were dried, transferred to SEM sample holders, and coated with a 5 nm thick layer of platinum. Amorphous API nanoparticles (budesonide, ezetimibe, ceritinib, and apalutamide) were added as dry powders to aqueous polymer solutions. The mixtures were either • (i) mixed with a magnetic stirrer and ultrasonicated until API was completely surrounded by water (wetted). The stirring was continued for 16-24 h at ambient temperature or • (ii) blended with a metal spatula and allowed to stay at room temperature for 18-24 h. The suspensions formed were analyzed after 18-24 h. SEM and XRD samples were prepared as described above. Suspension comprising nanosized APIs prepared as shown above were dried in a vacuum desiccator overnight. The solid materials were grounded to produce powders. The powders were analyzed on XRD and SEM. The powders comprising nanosized APIs were used in the stability, permeability, and dissolution tests as described above.

[3] = Stability tests of solid material (SEM, XRD, HPLC); details: materials prepared according to the disclosure; up to T30; crystallinity confirmed by XRD
Protocol: Solid material was weighted in separate vials (approx. 150 mg of material in each) and transferred to stability chambers. Three conditions were applied: ambient conditions (material in closed vial at RT), 25° C./65% RH and 40° C./75% RH. Material was analyzed at T0 as freshly prepared, T7 ([…]), T14 ([…]) and T30 (30 d) after the initiation of stability studies. SEM, XRD and dissolution/permeability studies were used to evaluate the crystallinity, particle size/morphology and performance of the material.

[4] = HPMC 1 wt.-%, SLS 0.2 wt.-%, mAPI 25 mg/g
[5] = HPMC 1 wt.-%, no SLS, mAPI 25 mg/g
[6] = HPMC 2.5 wt.-%, SLS 0.2 wt.-%, mAPI 25 mg/g
[7] = HPMC 2.5 wt.-%, no SLS, mAPI 25 mg/g
[8] = HPMC 5 wt.-%, SLS 0.2 wt.-%, mAPI 25 mg/g
[9] = HPMC 5 wt.-%, SLS 0.2 wt.-%, mAPI 100 mg/g
[10] = HPMC 5 wt.-%, SLS 0.2 wt.-%, mAPI 150 mg/g
[11] = HPMC 5 wt.-%, no SLS, mAPI 25 mg/g
[12] = HPMC 5 wt.-%, no SLS, mAPI 100 mg/g
[13] = HPMC 5 wt.-%, no SLS, mAPI 150 mg/g
[14] = PVP K30 1 wt.-%, no SLS, mAPI 25 mg/g
[15] = PVP K30 2.5 wt.-%, no SLS, mAPI 25 mg/g
[16] = PVP K30 5 wt.-%, no SLS, mAPI 25 mg/g
[17] = PVPVA 1 wt.-%, SLS 0.2 wt.-%, mAPI 25 mg/g
[18] = PVPVA 1 wt.-%, no SLS, mAPI 25 mg/g polymer solution
[19] = PVPVA 2.5 wt.-%, SLS 0.2 wt.-%, mAPI 25 mg/g
[20] = PVPVA 2.5 wt.-%, no SLS, mAPI 25 mg/g
[21] = PVPVA 5 wt.-%, SLS 0.2 wt.-%, mAPI 25 mg/g
[22] = PVPVA 5 wt.-%, no SLS, mAPI 25 mg/g
[23] = PVPVA 15 wt.-%, SLS 0.2 wt.-%, mAPI 150 mg/g
[24] = PVPVA 15 wt.-%, no SLS, mAPI 150 mg/g
[25] = PVPVA 20 wt.-%, no SLS, mAPI 200 mg/g
[26] = PVPVA 25 wt.-%, SLS 0.2 wt.-%, mAPI 250 mg/g
[27] = PVPVA 25 wt.-%, no SLS, mAPI 250 mg/g
[28] = PVPVA 45 wt.-%, no SLS, mAPI 450 mg/g
[29] = Poloxamer 407 1 wt.-%, no SLS, mAPI 25 mg/g
[30] = Poloxamer 407 2.5 wt.-%, no SLS, mAPI 25 mg/g
[31] = Poloxamer 407 5 wt.-%, no SLS, mAPI 25 mg/g

Polymorph [1, 4]: bulk
Polymorph [1, 5]: bulk
Polymorph [1, 6]: bulk
Polymorph [1, 7]: bulk
Polymorph [1, 8]: bulk
Polymorph [1, 9]: bulk
Polymorph [1, 10]: bulk
Polymorph [1, 11]: bulk
Polymorph [1, 12]: bulk
Polymorph [1, 13]: bulk
Polymorph [1, 14]: bulk
Polymorph [1, 15]: bulk
Polymorph [1, 16]: bulk
Polymorph [1, 17]: bulk
Polymorph [1, 18]: bulk
Polymorph [1, 19]: bulk
Polymorph [1, 20]: bulk
Polymorph [1, 21]: bulk
Polymorph [1, 22]: bulk
Polymorph [1, 23]: bulk
Polymorph [1, 24]: bulk
Polymorph [1, 25]: bulk
Polymorph [1, 26]: bulk
Polymorph [1, 27]: bulk
Polymorph [1, 28]: bulk
Polymorph [1, 29]: bulk
Polymorph [1, 30]: buik
Polymorph [1, 31]: bulk
Grade (SEM, visual inspection) [2, 4]: 5
Grade (SEM, visual inspection) [2, 5]: 5
Grade (SEM, visual inspection) [2, 6]: 5
Grade (SEM, visual inspection) [2, 7]: 5
Grade (SEM, visual inspection) [2, 8]: 5
Grade (SEM, visual inspection) [2, 9]: 5
Grade (SEM, visual inspection) [2, 10]: 5
Grade (SEM, visual inspection) [2, 11]: 5
Grade (SEM, visual inspection) [2, 12]: 5
Grade (SEM, visual inspection) [2, 13]: 5
Grade (SEM, visual inspection) [2, 14]: 3
Grade (SEM, visual inspection) [2, 15]: 3
Grade (SEM, visual inspection) [2, 16]: 3
Grade (SEM, visual inspection) [2, 17]: 4
Grade (SEM, visual inspection) [2, 18]: 3
Grade (SEM, visual inspection) [2, 19]: 4
Grade (SEM, visual inspection) [2, 20]: 2
Grade (SEM, visual inspection) [2, 21]: 4
Grade (SEM, visual inspection) [2, 22]: 2
Grade (SEM, visual inspection) [2, 23]: 5
Grade (SEM, visual inspection) [2, 24]: 5
Grade (SEM, visual inspection) [2, 25]: 5
Grade (SEM, visual inspection) [2, 26]: 5
Grade (SEM, visual inspection) [2, 27]: 5
Grade (SEM, visual inspection) [2, 28]: 5
Grade (SEM, visual inspection) [2, 29]: 1
Grade (SEM, visual inspection) [2, 30]: 1
Grade (SEM, visual inspection) [2, 31]: 1
Stability of nanocrystalline material over the stability study [3]: stable over the whole stability study
SMILES: CCCC1O[C@@H]2C[C@H]3[C@@H]4CCC5=CC(=O)C=C[C@]5(C)[C@H]4[C@@H](O)C[C@]3(C)[C@]2(C(=O)CO)O1 (stereo partly drawn) [Bude, budesonide]
